Laboratory results taken from BindingDB's records for patent US10544113 (National Health Research Institute; Regents of the …, 2020).
pEC50: −log10 of the molar value.

target: Mu-type opioid receptor (Homo sapiens, UniProt P35372); assay: FLIPR Calcium Assay
Description: One day before the assay, CORNING black with clear flat bottom 96-well assay plates were coated with a 0.1 mg/mL Poly-L-Lysine solution. CHO-K1/MOR/Gα15 cells were suspended in the F12 medium and plated at a density of 8×10^4 cells/well in 200 μL medium. Cells were incubated in a humidified atmosphere of 10% CO2 at 37° C. overnight so as to reach an 80-90% confluent cell monolayer before assay. At the day of assay, 150 μL medium/well was removed from plate. To each well, 50 μL FLIPR calcium assay reagent dissolved in 1× assay buffer (HBSS: KCl 5 mM, KH2PO4 0.3 mM, NaCl 138 mM, NaHCO3 4 mM, Na2HPO4 0.3 mM, d-glucose 5.6 mM, with additional 20 mM HEPES and 13 mM CaCl2, pH 7.4), with 2.5 mM probenecid was added and the plate was incubated at 37° C. for 1 h. Compounds and other reagents were dissolved in the assay buffer. Using a FlexStationIII (Molecular Devices Corp.), the [Ca2+]i fluorescence increases after robotic injections of compounds or other reagents were monitored every 1.52 s interval with excitation wavelength at 485 nm and with emission wavelength at 525 nm. The [Ca2+]i fluorescence was measured up to 90 s after agonist injection.

Chain of Mu-type opioid receptor (P35372 whole entry): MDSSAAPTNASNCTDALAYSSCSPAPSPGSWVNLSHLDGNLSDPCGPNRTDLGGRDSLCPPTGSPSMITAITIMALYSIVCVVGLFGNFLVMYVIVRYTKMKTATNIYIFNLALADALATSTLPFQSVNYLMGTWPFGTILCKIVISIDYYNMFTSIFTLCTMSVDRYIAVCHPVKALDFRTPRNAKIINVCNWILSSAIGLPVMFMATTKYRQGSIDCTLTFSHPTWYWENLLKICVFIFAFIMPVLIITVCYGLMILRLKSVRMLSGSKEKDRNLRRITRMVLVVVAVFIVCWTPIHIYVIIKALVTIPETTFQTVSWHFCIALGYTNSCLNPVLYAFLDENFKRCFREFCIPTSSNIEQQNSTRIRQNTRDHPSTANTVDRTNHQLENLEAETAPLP

pEC50 | SMILES
5.18 | Cc1cc(C(=O)NCCc2ccccc2Cl)ccc1N1C(=O)CSC1c1ccc(F)cc1 (stereo not drawn) [US10544113, No. 384]
5.15 | COCCOCCOC(=O)c1ccc(N2C(=O)CSC2c2ccc(F)cc2)c(C)c1 (stereo not drawn) [US10544113, No. 280]
5.43 | COCCCNC(=O)c1ccc(N2C(=O)CSC2c2ccc(F)cc2)c(C)c1 (stereo not drawn) [US10544113, No. 343]
5.15 | Cc1cc(C(=O)NCCN2CCOCC2)ccc1N1C(=O)CSC1c1ccc(F)cc1 (stereo not drawn) [US10544113, No. 344]
5.54 | Cc1cc(C(=O)OCCN2CCCC2)ccc1N1C(=O)CSC1c1ccc(F)cc1 (stereo not drawn) [US10544113, No. 294]

Further lines, the molecule ahead of its results:

SMILES | pEC50
COc1ccc(F)cc1N1C(=O)CSC1c1cccc(F)c1 (stereo not drawn) [US10544113, No. 5] | 5.28
Cc1cccc(F)c1N1C(=O)CSC1c1ccc(F)cc1 (stereo not drawn) [US10544113, No. 108] | 5.48
Cc1cc(C(=O)OCCCc2ccccc2)ccc1N1C(=O)CSC1c1ccc(F)cc1 (stereo not drawn) [US10544113, No. 253] | 4.95
COc1ccccc1N1C(=O)CSC1c1cccc(F)c1 (stereo not drawn) [US10544113, No. 1] | 4.91
COc1ccc(F)cc1N1C(=O)CSC1c1ccc(F)cc1 (stereo not drawn) [US10544113, No. 6] | 5.41
COc1ccccc1N1C(=O)CSC1c1ccc(F)cc1 (stereo not drawn) [US10544113, No. 2] | 4.72
COc1cc(N2C(=O)CSC2c2ccc(F)cc2)cc(OC)c1OC (stereo not drawn) [US10544113, No. 16] | 5.08
COc1ccc(F)cc1N1C(=O)CSC1c1ccc(F)c(F)c1 (stereo not drawn) [US10544113, No. 4] | 5.48
